Literature values in patent US6500450B1, “Composition for treating migraine headaches” (priority 1998, dated 2002).
Structures can show the parent of a compound that is named as a salt.

Tests used:
migraine = conditions: in vivo
[1] = system: migraine occurrence in patients
[2] = system: patients with recurrent migraines; conditions: 49 patients
[3] = system: moderate to severe migraine headaches
[4] = 400 mg/day with breakfast for at least three months

Structure (SMILES): CC(C)NCC(O)COc1cccc2ccccc12 (stereo not drawn) [Propranolol]
- efficacy in migraine prophylaxis (migraine): effective
- side effects (migraine): fatigue, depression, impotence, insomnia, dizziness, and cold extremities

Structure (SMILES): CN1C[C@H](C(=O)N[C@]2(C)O[C@@]3(O)[C@@H]4CCCN4C(=O)[C@H](Cc4ccccc4)N3C2=O)C=C2c3cccc4[nH]cc(c34)C[C@H]21 [ergotamine, ergotamine tartrate]
- patients with complete headache relief within three hours of taking the drug (patients with migraine; 1-mg rectal suppository, patients with migraine): 73%
- consequence of frequent use (patients with migraine; frequent use of the drug): rebound headache
- side effects (patients with migraine; human, in vivo): nausea, vomiting, abdominal pain, muscle cramps, and occasionally, distal paresthesias

Structure (SMILES): CC[C@@H](CO)NC(=O)[C@@H]1C=C2c3cccc4c3c(cn4C)C[C@H]2N(C)C1 [methysergide, methysergide maleate]
- patients in whom migraine occurrence is reduced by more than half ([1]; 6 mg dose, migraine prophylaxis): 60%
- adverse effect of long-term use ([1]; long-term use): associated with retroperitoneal fibrosis

Structure (SMILES): Cc1cc2nc3c(=O)[nH]c(=O)nc-3n(C[C@H](O)[C@H](O)[C@H](O)CO)c2cc1C [riboflavin]
- side effects ([2]; 400 mg/day for at least three months): One patient stopped treatment because of gastric intolerance, but no other side effects were reported
- fall in the mean number of migraine attacks [2, 4]: 67%
- improvement of migraine severity [2, 4]: 68%

Structure (SMILES): CNS(=O)(=O)Cc1ccc2[nH]cc(CCN(C)C)c2c1 [sumatriptan]
- reduction of the intensity of moderate to severe migraine headaches ([3]; dose of six milligrams, injectable): 70%
- side effects ([3]; stated for this type of drug): distal paresthesias, tingling, heaviness, and a sensation of pressure
